Measurements taken from patent US8168232B2, “Formulations and methods of using nitric oxide mimetics in cancer treatment” (priority 2000, dated 2012).

Legend:
[1] = system: uPAR mRNA; experiment: Northern blot analysis of uPAR mRNA in MDA-MB-231 breast carcinoma cells; assay type: cell-based, human
[2] = system: Bl6F10 metastatic melanoma cells; experiment: In vivo experimental metastasis (lung colonization) model; parameters: species or system C57BL6 mice; settings: cells cultured in 1% O2 with 8-Br-cGMP (1 μM)
Method: C57BL6 mice were injected i.v. (tail vein) with a bolus of 5×10^4-10^5 Bl6F10 metastatic melanoma cells. Immediately after the tail vein injection, mice were randomly divided into groups of 15 and mice in each group were placed in plexiglass chambers (approximately 3 L) which were continuously flushed with gas mixtures of 20% O2:balance N2 and 10% O2:balance N2, respectively. […] After a 24 hour exposure to an atmosphere of either 20% O2 or 10% O2, mice were removed from the chambers and placed in regular cages kept at room air. Thirteen days later, mice were sacrificed by cervical dislocation, and lungs were removed and fixed in Bouin's fixative (Sigma). Metastatic nodules (many of which appeared black due to the presence of melanin) on the surface of the lungs were counted visually under a dissecting microscope. Data were expressed as the number of lung nodules per 10^4 cells injected and were analyzed using statistical tests for non-parametric values.
(§1) Cells were then removed from plates with trypsin and 5×10^4 cells were injected i.v. (tail vein) into C57BL6 female mice. Some of the cells treated in vitro were plated onto tissue culture dishes to determine colony-forming ability using the protocol described below in the Section I.J.
(§2) Following harvesting from culture plates, 5×10^4 cells were injected intravenously (tail vein injections) into 5-7 week old C57Bl/6 female mice. Cells were also plated in tissue culture plates to determine the effect of culture conditions on in vitro colony forming ability. Fourteen days after intravenous inoculation, mice were sacrificed and their lungs were removed and fixed in Bouin's fixative. Both melanotic and amelanotic metastatic colonies were counted under a dissecting microscope. Data were expressed as the number of lung nodules per 5×10^4 viable cells injected (as determined by in vitro colony-forming ability) and were analyzed using statistical tests for non-parametric values.

[3] = system: Bl6F10 mouse melanoma cells; experiment: In vitro colony-forming ability of treated Bl6F10 melanoma cells; assay type: cell-based; settings: 8-Br-cGMP treatment
Method: as §1, §2

[4] = system: uPAR protein; experiment: Western blot analysis of uPAR protein in MDA-MB-231 breast carcinoma cells; assay type: cell-based, human
Method: Following incubations, the cells were lysed using a buffer containing 40 mM HEPES pH 7.2, 100 mM NaCl, 20% glycerol, 0.1 mM EDTA pH 8.0, 0.2% Triton X-100, 1 mM DTT, and 2 mM PMSF. The lysates were then subjected to homogenization, DNA shearing (10 times with a 25⅝-gauge needle), boiling (5 minutes) and centrifugation (15 minutes, 14000 g). The supernatant was collected and stored at −80° C. until use. The samples were subjected to SDS-polyacrylamide gel electrophoresis (PAGE) and the resolved proteins were transferred to an Immobilon-P membrane using a wet transfer apparatus (Bio-Rad Laboratories, Mississauga, ON). The membranes were blocked overnight at 4° C. in a solution containing 1% PBS, and 0.01% Tween20 (PBS-T) as well as 5% casein. The blots were subsequently incubated for 1.5 hours with the monoclonal anti-uPAR antibody [MoAb 3937], followed by six 5 minute washes with PBS-T. The membranes were then incubated with a horseradish peroxidase labeled goat anti-mouse IgG secondary antibody for 1.5 hours. Following six additional 5 minute washes with PBS-T, the antigen was detected by enhanced chemiluminescence and the blots were exposed onto Dupont Reflection NEF film.
Following incubation, the cells were lysed using a buffer containing 40 mM HEPES pH 7.2, 100 mM NaCl, 20% glycerol, 0.1 mM EDTA pH 8.0, 0.2% Triton X-100, 1 mM dithiothreitol (DTT), and 2 mM phenylmethyl sulfonyl fluoride (PMSF). The lysates were then subjected to homogenization, DNA shearing (10 times with a 25⅝-gauge needle), boiling (5 minutes) and centrifugation (15 minutes at 14,000×g). The supernatant was collected and stored at −80° C. until use. The samples were subjected to SDS-polyacrylamide gel electrophoresis (PAGE) and the resolved proteins were transferred to an Immobilon-P membrane (Millipore Corp., Bedford, Mass.) using a wet transfer apparatus (BioRad Laboratories, Mississauga, ON). The membranes were blocked overnight at 4° C. in a solution containing 1% PBS, and 0.01% Tween 20 (PBS-T) as well as 5% dry milk powder. The blots were subsequently incubated for 1.5 hours with the monoclonal anti-uPAR (MoAb 3937; American Diagnostica Inc., Greenwich, Conn.), or a polyclonal soluble guanylate cyclase (sGC) antiserum (Cayman Chemical, Ann Arbor, Mich.) followed by six 5-minute washes with PBS-T. Subsequently, the uPAR membranes were incubated for 1 hour with a horseradish peroxidase labelled goat anti-mouse IgG secondary antibody (Bio-Rad, Hercules, Calif.) and the sGC membranes were incubated for 1 hour with a goat anti-rabbit IgG horseradish peroxidase conjugate (VECTOR Laboratories Inc., Burlingame, Calif.). Following six additional 5-minute washes with PBS-T, the antigen was detected by enhanced chemiluminescence (Amersham Canada Inc., Mississauga, ON) and the blots were exposed onto Dupont Reflection NEF film.

[5] = system: MDA-MB-231 breast carcinoma cells; experiment: In vitro Matrigel invasion assay, MDA-MB-231; assay type: cell-based, human
Method: The chambers consist of cell culture inserts, 6.5 mm in diameter and with a 8 μm pore size membrane. Each membrane was coated with 100 μL of a 1 mg/mL solution of Matrigel diluted in cold serum-free culture medium (EX-CELL 300), and allowed to dry in a laminar flow cabinet for approximately 12 hours. The Matrigel was then rehydrated by incubating it with 100 μL of serum-free medium for approximately 1 hour. After rehydration, cell suspensions containing 5.0×10^4 or 1.0×10^5 cells in 100 μL of medium, containing both serum and the nitric oxide treatments, were added to each well. Culture medium containing serum and the respective nitric oxide treatment were then added to each insert. The cells were incubated for 24 hours under either hypoxic (1% O2) or control (20% O2) conditions. Following incubation, the non-invading cells were removed from the upper surface of the membrane by wiping with a cotton swab. The cells on the lower surface of the membrane were fixed for 10 minutes with Carnoy's fixative (25% acetic acid, 75% methanol), and then stained for approximately 3 hours with a 1% toluidine blue, 1% sodium borate solution. Following a rinse in phosphate-buffered saline (PBS), the membrane was removed from the insert housing with a small scalpel blade, mounted onto a microscope slide and coverslipped. Invading cells were then viewed under the microscope at 40× magnification and counted. The invasion index for each treatment was calculated by dividing the number of invading cells by the number of cells which invaded under standard conditions. This value was then multiplied by 100 to obtain a percentage. The standard was given a value of 100% and the treatment values were converted to a percentage of the standard. The results were tested for statistical significance using either the Tukey test for pair-wise multiple comparison procedures or the Student-Newman-Keuls method for pair-wise multiple comparison procedures.
The chambers consisted of 6.5-mm inserts with 8-μm pore membranes (Corning Costar Corp., Cambridge, Mass.). Each membrane was coated with 100 μL of a 2.6 mg/mL solution of Matrigel (Collaborative Biochemical Products, Bedford, Mass.) diluted in cold serum-free medium (EX-CELL 300; JRH Biosciences, Lenexa, Kans.), and allowed to dry in a laminar flow cabinet for approximately 12 hours. The Matrigel was then rehydrated with 100 μL of serum-free medium for approximately 1 hour. […] Invading cells were then viewed under the microscope at 40× magnification and counted. The invasion index for each treatment was calculated by dividing the number of invading cells by the number of cells that invaded under standard (20% oxygen) conditions. Invasion indices were expressed as percentages of control (20% oxygen) values. […]

[6] = system: hypoxia-inducible factor-1; settings: hypoxically cultured Hep3B cells; read-out: IC50 for suppression of the adaptive cellular response controlled by hypoxia-inducible factor-1; cited from earlier work
[7] = system: mouse TRAMP-C2 prostatic adenocarcinoma cells; settings: 0.5% vs 20% O2; one-hour doxorubicin
Method: (§3) Low tumor oxygenation (hypoxia) correlates with increased metastasis and resistance to radiotherapy and chemotherapy. […] This was followed by a one-hour incubation with doxorubicin and survival was assessed by colony formation assays. Western blot analysis was used to measure NO synthase (NOS) protein levels in cells cultured in 20% and 0.5% O2.

[8] = system: human PC-3 prostatic adenocarcinoma cells; settings: 0.5% vs 20% O2; one-hour doxorubicin
Method: as §3

[9] = system: MDA-MB-231 breast carcinoma spheroids; experiment: Clonogenic survival of MDA-MB-231 spheroids after doxorubicin; assay type: cell-based, human; settings: 200 μM doxorubicin
Method: Following initial cell plating, spheroids formed for 24, 48, 72, 96 or 120 h. At each time point, spheroids were exposed to 200 μM of doxorubicin, then disaggregated and plated for assessment of colony formation (survival).
Spheroids were allowed to form for 72 h. DETA/NO was applied for the final 24 h of spheroid formation. Spheroids were then exposed to doxorubicin for 1 h, prior to disaggregation and plating for assessment of survival by clonogenic assay.
Using human MDA-MB-231 breast carcinoma cells in clonogenic assays, survival was determined following doxorubicin exposure and NO mimetic administration to both monolayer and spheroid cultures.

[10] = system: MDA-MB-231 breast cancer cells; experiment: Colony formation assay for doxorubicin resistance, MDA-MB-231 monolayer; assay type: cell-based, human; settings: 200 μM doxorubicin
Method: The resistance of MDA-MB-231 breast cancer cells to doxorubicin was determined following culture in 20% or 1% oxygen by counting the number of colonies formed. MDA-MB-231 cells were incubated in 1% O2 or 20% O2 for 24 hours. […] The cells were washed and then plated onto 35 mm plates at different dilutions. The cells were incubated for an additional 1-2 weeks in order to allow cell colonies to grow. At the end of the incubation period, the cells were fixed with Carnoy's fixative, stained with Crystal violet, rinsed and allowed to air dry. Colonies were counted visually. The surviving cells under each condition was determined by counting the number of colonies and was expressed as a fraction of the number of colonies that survived without doxorubicin exposure.
Using human MDA-MB-231 breast carcinoma cells in clonogenic assays, survival was determined following doxorubicin exposure and NO mimetic administration to both monolayer and spheroid cultures. […] However, these NO mimetics effectively attenuated the resistance to 200 μM doxorubicin associated with 3D culture by 90% and 30% respectively.

[11] = 8-Br-cGMP 0.1 μM-10 μM, 24 hours, dose-dependent
[12] = 8-Br-cGMP 10^−3-10^−7 M, 0.5% O2 or DFO 100 μM

## Nc1nc2c(nc(Br)n2[C@@H]2O[C@@H]3COP(=O)(O)O[C@H]3[C@H]2O)c(=O)[nH]1 [8-Br-cGMP, 8-bromoguanosine 3′:5′-cyclic monophosphate]
[1]; [11]
  reduction of hypoxic upregulation of uPAR mRNA expression: up to 100%
[1]; [12]
  effect on hypoxia- and DFO-induced uPAR expression, mRNA level: significantly abrogated
[1]; 8-Br-cGMP (1 mM) as printed
  DFO-induced upregulation of uPAR mRNA expression: complete inhibition
[2]
  hypoxic induction of metastatic lung nodules: completely abrogated
[3]
  viability of the cells (colony formation assay): did not affect the viability
[4]; [11]
  reduction of hypoxic upregulation of uPAR protein expression: up to 100%
[4]; [12]
  effect on hypoxia- and DFO-induced uPAR expression, protein level: significantly abrogated
[5]; 0.1 μM-1 mM, 24-h, 0.5% O2
  effect of hypoxia on invasiveness: completely inhibited
[5]; 8-Br-cGMP
  hypoxia-associated invasion: significantly inhibit

## N=c1c[n+](N2CCOCC2)[n-]o1 [3-morpholinosydnonimine]
[6]
  IC50: 490 µM

## O=S(=O)(NCCNC/C=C/c1ccc(Br)cc1)c1cccc2cnccc12 [H-89]
[1]; H-89 1 μM with forskolin 10 μM
  effect of forskolin on uPAR expression: prevented
[1]; H-89 1 μM, independent of oxygenation
  uPAR expression: up-regulation
[5]; H-89 1 μM alone
  invasiveness: independently enhanced invasiveness
[5]; H-89 1 μM with forskolin 10 μM
  effect of forskolin on invasion: prevented

## N[C@@H](CCC(=O)N[C@@H](CSN=O)C(=O)NCC(=O)O)C(=O)O [S-nitroso-L-glutathione]
[6]
  IC50: 211 µM

## COc1cccc2c1C(=O)c1c(O)c3c(c(O)c1C2=O)C[C@@](O)(C(=O)CO)C[C@@H]3O[C@H]1C[C@H](N)[C@H](O)[C@H](C)O1 [doxorubicin]
[7]
  increased survival following doxorubicin after pre-incubation under hypoxia: up to 12 fold
[8]
  increased survival following doxorubicin after pre-incubation under hypoxia: up to 8 fold
[9]
  decrease in survival of tumor cells cultured as spheroids: 90%
[10]
  survival in monolayer culture: zero
